ChEMBL document CHEMBL1671627, “Increasing trends in antimicrobial resistance among clinically important anaerobes and Bacteroides fragilis isolates causing nosocomial infections: emerging resistance to carbapenems” (2008)

Columns and labels:
Bacteroides fragilis [1] = experiment: Antibacterial activity against Bacteroides fragilis assessed as susceptible isolates by CLSI agar dilution method; type: functional
Bacteroides fragilis [2] = experiment: Antibacterial activity against Bacteroides fragilis assessed as resistant isolates by CLSI agar dilution method; type: functional
[3] = system: Bacteroides thetaiotaomicron; experiment: Antibacterial activity against beta-lactamase producing Bacteroides thetaiotaomicron assessed as susceptible isolates by CLSI agar dilution method; type: functional
[4] = system: Bacteroides thetaiotaomicron; experiment: Antibacterial activity against beta-lactamase producing Bacteroides thetaiotaomicron assessed as resistant isolates by CLSI agar dilution method; type: functional
Phocaeicola vulgatus [5] = experiment: Antibacterial activity against beta-lactamase producing Bacteroides vulgatus by CLSI agar dilution method; type: functional
Phocaeicola vulgatus [6] = experiment: Antibacterial activity against beta-lactamase producing Bacteroides vulgatus assessed as susceptible isolates by CLSI agar dilution method; type: functional
Phocaeicola vulgatus [7] = experiment: Antibacterial activity against beta-lactamase producing Bacteroides vulgatus assessed as resistant isolates by CLSI agar dilution method; type: functional
Bacteroides uniformis [8] = experiment: Antibacterial activity against beta-lactamase producing Bacteroides uniformis by CLSI agar dilution method; type: functional
Bacteroides uniformis [9] = experiment: Antibacterial activity against beta-lactamase producing Bacteroides uniformis assessed as susceptible isolates by CLSI agar dilution method; type: functional
Bacteroides uniformis [10] = experiment: Antibacterial activity against beta-lactamase producing Bacteroides uniformis assessed as resistant isolates by CLSI agar dilution method; type: functional
Bacteroides caccae [11] = experiment: Antibacterial activity against beta-lactamase producing Bacteroides caccae by CLSI agar dilution method; type: functional
Bacteroides caccae [12] = experiment: Antibacterial activity against beta-lactamase producing Bacteroides caccae assessed as susceptible isolates by CLSI agar dilution method; type: functional
Bacteroides caccae [13] = experiment: Antibacterial activity against beta-lactamase producing Bacteroides caccae assessed as resistant isolates by CLSI agar dilution method; type: functional
Fusobacterium varium [14] = experiment: Antibacterial activity against Fusobacterium varium by CLSI agar dilution method; type: functional
Fusobacterium nucleatum [15] = experiment: Antibacterial activity against Fusobacterium nucleatum by CLSI agar dilution method; type: functional
Fusobacterium mortiferum [16] = experiment: Antibacterial activity against Fusobacterium mortiferum by CLSI agar dilution method; type: functional
[17] = system: Fusobacterium necrophorum; experiment: Antibacterial activity against Fusobacterium necrophorum by CLSI agar dilution method; type: functional
Fusobacterium varium [18] = experiment: Antibacterial activity against Fusobacterium varium assessed as susceptible isolates by CLSI agar dilution method; type: functional
Fusobacterium nucleatum [19] = experiment: Antibacterial activity against Fusobacterium nucleatum assessed as susceptible isolates by CLSI agar dilution method; type: functional
Fusobacterium mortiferum [20] = experiment: Antibacterial activity against Fusobacterium mortiferum assessed as susceptible isolates by CLSI agar dilution method; type: functional
[21] = system: Fusobacterium necrophorum; experiment: Antibacterial activity against Fusobacterium necrophorum assessed as susceptible isolates by CLSI agar dilution method; type: functional
Fusobacterium varium [22] = experiment: Antibacterial activity against Fusobacterium varium assessed as resistant isolates by CLSI agar dilution method; type: functional
Fusobacterium nucleatum [23] = experiment: Antibacterial activity against Fusobacterium nucleatum assessed as resistant isolates by CLSI agar dilution method; type: functional
Fusobacterium mortiferum [24] = experiment: Antibacterial activity against Fusobacterium mortiferum assessed as resistant isolates by CLSI agar dilution method; type: functional
[25] = system: Fusobacterium necrophorum; experiment: Antibacterial activity against Fusobacterium necrophorum assessed as resistant isolates by CLSI agar dilution method; type: functional
Prevotella buccae [26] = experiment: Antibacterial activity against Prevotella buccae by CLSI agar dilution method; type: functional; settings: Segatella buccae
Prevotella bivia [27] = experiment: Antibacterial activity against Prevotella bivia by CLSI agar dilution method; type: functional
Prevotella intermedia [28] = experiment: Antibacterial activity against Prevotella intermedia by CLSI agar dilution method; type: functional
[29] = system: Prevotella melaninogenica; experiment: Antibacterial activity against Prevotella melaninogenica by CLSI agar dilution method; type: functional
Prevotella buccae [30] = experiment: Antibacterial activity against Prevotella buccae assessed as susceptible isolates by CLSI agar dilution method; type: functional, Segatella buccae
Prevotella bivia [31] = experiment: Antibacterial activity against Prevotella bivia assessed as susceptible isolates by CLSI agar dilution method; type: functional
Prevotella intermedia [32] = experiment: Antibacterial activity against Prevotella intermedia assessed as susceptible isolates by CLSI agar dilution method; type: functional
[33] = system: Prevotella melaninogenica; experiment: Antibacterial activity against Prevotella melaninogenica assessed as susceptible isolates by CLSI agar dilution method; type: functional
Prevotella buccae [34] = experiment: Antibacterial activity against Prevotella buccae assessed as resistant isolates by CLSI agar dilution method; type: functional, Segatella buccae
Prevotella bivia [35] = experiment: Antibacterial activity against Prevotella bivia assessed as resistant isolates by CLSI agar dilution method; type: functional
Prevotella intermedia [36] = experiment: Antibacterial activity against Prevotella intermedia assessed as resistant isolates by CLSI agar dilution method; type: functional
[37] = system: Prevotella melaninogenica; experiment: Antibacterial activity against Prevotella melaninogenica assessed as resistant isolates by CLSI agar dilution method; type: functional
Veillonella parvula = experiment: Antibacterial activity against Veillonella parvula by CLSI agar dilution method; type: functional
Clostridium perfringens = experiment: microbe, parasite or virus in culture; type: functional
[38] = system: Clostridium paraputrificum; experiment: Antibacterial activity against beta-lactamase producing Clostridium paraputrificum by CLSI agar dilution method; type: functional
Clostridium septicum [39] = experiment: Antibacterial activity against beta-lactamase producing Clostridium septicum by CLSI agar dilution method; type: functional
Clostridium tertium [40] = experiment: Antibacterial activity against beta-lactamase producing Clostridium tertium by CLSI agar dilution method; type: functional
[41] = system: Clostridium paraputrificum; experiment: Antibacterial activity against beta-lactamase producing Clostridium paraputrificum assessed as susceptible isolates by CLSI agar dilution method; type: functional
Clostridium septicum [42] = experiment: Antibacterial activity against beta-lactamase producing Clostridium septicum assessed as susceptible isolates by CLSI agar dilution method; type: functional
Clostridium tertium [43] = experiment: Antibacterial activity against beta-lactamase producing Clostridium tertium assessed as susceptible isolates by CLSI agar dilution method; type: functional
Bacteroides fragilis [44] = experiment: Antibacterial activity against Bacteroides fragilis by CLSI agar dilution method; type: functional
[45] = system: Bacteroides thetaiotaomicron; experiment: Antibacterial activity against beta-lactamase producing Bacteroides thetaiotaomicron by CLSI agar dilution method; type: functional
[46] = system: Clostridium paraputrificum; experiment: Antibacterial activity against beta-lactamase producing Clostridium paraputrificum assessed as resistant isolates by CLSI agar dilution method; type: functional
Clostridium septicum [47] = experiment: Antibacterial activity against beta-lactamase producing Clostridium septicum assessed as resistant isolates by CLSI agar dilution method; type: functional
Clostridium tertium [48] = experiment: Antibacterial activity against beta-lactamase producing Clostridium tertium assessed as resistant isolates by CLSI agar dilution method; type: functional
[49] = system: Peptostreptococcus anaerobius; experiment: Antibacterial activity against beta-lactamase producing Peptostreptococcus anaerobius by CLSI agar dilution method; type: functional
[50] = system: Peptostreptococcus anaerobius; experiment: Antibacterial activity against beta-lactamase producing Peptostreptococcus anaerobius assessed as susceptible isolates by CLSI agar dilution method; type: functional
[51] = system: Peptostreptococcus anaerobius; experiment: Antibacterial activity against beta-lactamase producing Peptostreptococcus anaerobius assessed as resistant isolates by CLSI agar dilution method; type: functional
Parvimonas micra [52] = experiment: Antibacterial activity against beta-lactamase producing Micromonas micros by CLSI agar dilution method; type: functional
Parvimonas micra [53] = experiment: Antibacterial activity against beta-lactamase producing Micromonas micros assessed as susceptible isolates by CLSI agar dilution method; type: functional
Parvimonas micra [54] = experiment: Antibacterial activity against beta-lactamase producing Micromonas micros assessed as resistant isolates by CLSI agar dilution method; type: functional
[55] = system: Peptoniphilus asaccharolyticus; experiment: Antibacterial activity against beta-lactamase producing Peptoniphilus asaccharolyticus by CLSI agar dilution method; type: functional
[56] = system: Peptoniphilus asaccharolyticus; experiment: Antibacterial activity against beta-lactamase producing Peptoniphilus asaccharolyticus assessed as susceptible isolates by CLSI agar dilution method; type: functional
[57] = system: Peptoniphilus asaccharolyticus; experiment: Antibacterial activity against beta-lactamase producing Peptoniphilus asaccharolyticus assessed as resistant isolates by CLSI agar dilution method; type: functional
Finegoldia magna [58] = experiment: Antibacterial activity against beta-lactamase producing Finegoldia magna by CLSI agar dilution method; type: functional
Finegoldia magna [59] = experiment: Antibacterial activity against beta-lactamase producing Finegoldia magna assessed as susceptible isolates by CLSI agar dilution method; type: functional
Finegoldia magna [60] = experiment: Antibacterial activity against beta-lactamase producing Finegoldia magna assessed as resistant isolates by CLSI agar dilution method; type: functional

C[C@@H](O)[C@H]1C(=O)N2C(C(=O)O)=C(SCCNC=N)C[C@H]12 [IMIPENEM ANHYDROUS]
0.01 µg/mL: MIC (Fusobacterium varium [14]) | MIC (Fusobacterium nucleatum [15]) | MIC (Fusobacterium mortiferum [16]) | MIC [17]
96%: Activity (Phocaeicola vulgatus [6]) | Activity (Bacteroides uniformis [9]) | Activity (Bacteroides caccae [12]) | Activity (Fusobacterium varium [18]) | Activity (Fusobacterium nucleatum [19]) | Activity (Fusobacterium mortiferum [20]) | Activity [21]
8 µg/mL: MIC90 (Clostridium perfringens) | MIC90 [38] | MIC90 (Clostridium septicum [39]) | MIC90 (Clostridium tertium [40])
0.5 µg/mL: MIC50 (Fusobacterium varium [14]) | MIC50 (Fusobacterium nucleatum [15]) | MIC50 (Fusobacterium mortiferum [16]) | MIC50 [17] | MIC90 (Prevotella buccae [26]) | MIC90 (Prevotella bivia [27]) | MIC90 (Prevotella intermedia [28]) | MIC90 [29] | MIC50 (Bacteroides fragilis [44]) | MIC50 [45] | MIC90 [49] | MIC90 (Parvimonas micra [52]) | MIC90 [55] | MIC90 (Finegoldia magna [58])
94%: Activity (Prevotella buccae [30]) | Activity (Prevotella bivia [31]) | Activity (Prevotella intermedia [32]) | Activity [33]
4%: Activity (Phocaeicola vulgatus [7]) | Activity (Bacteroides uniformis [10]) | Activity (Bacteroides caccae [13]) | Activity (Fusobacterium varium [22]) | Activity (Fusobacterium nucleatum [23]) | Activity (Fusobacterium mortiferum [24]) | Activity [25] | Activity [46] | Activity (Clostridium septicum [47]) | Activity (Clostridium tertium [48])
1 µg/mL: MIC50 (Phocaeicola vulgatus [5]) | MIC50 (Bacteroides uniformis [8]) | MIC50 (Bacteroides caccae [11])
3%: Activity (Bacteroides fragilis [2])
0.25 µg/mL: MIC50 (Prevotella buccae [26]) | MIC50 (Prevotella bivia [27]) | MIC50 (Prevotella intermedia [28]) | MIC50 [29] | MIC50 (Clostridium perfringens) | MIC50 [38] | MIC50 (Clostridium septicum [39]) | MIC50 (Clostridium tertium [40])
0.06 µg/mL: MIC50 [49] | MIC50 (Parvimonas micra [52]) | MIC50 [55] | MIC50 (Finegoldia magna [58])
0.12 µg/mL: MIC (Veillonella parvula)
100%: Activity [50] | Activity (Parvimonas micra [53]) | Activity [56] | Activity (Finegoldia magna [59])
85%: Activity [41] | Activity (Clostridium septicum [42]) | Activity (Clostridium tertium [43])
0%: Activity [4] | Activity [51] | Activity (Parvimonas micra [54]) | Activity [57] | Activity (Finegoldia magna [60])
6%: Activity (Prevotella buccae [34]) | Activity (Prevotella bivia [35]) | Activity (Prevotella intermedia [36]) | Activity [37]
4 µg/mL: MIC90 (Phocaeicola vulgatus [5]) | MIC90 (Bacteroides uniformis [8]) | MIC90 (Bacteroides caccae [11]) | MIC90 (Fusobacterium varium [14]) | MIC90 (Fusobacterium nucleatum [15]) | MIC90 (Fusobacterium mortiferum [16]) | MIC90 [17] | MIC90 (Bacteroides fragilis [44]) | MIC90 [45]
93%: Activity (Bacteroides fragilis [1]) | Activity [3]
